Like-named read-outs stand apart in the source and are kept apart here.
Legend:
[1] = molecular target: T1, estrogen receptor (ER) (Homo sapiens, UniProt P03372); experiment: ER CALUX luciferase reporter bioassay (BG1Luc4E2/ER-α-positive cells); type: cell-based; details: for EC50: agonist, ER CALUX luciferase induction
T1 construct: endogenous in cells; host or cells: BG1Luc4E2 (human ovarian cell line per title of Rogers and Denison 2000)

[2] = molecular target: T2, human carboxylesterase CES3 (Homo sapiens, UniProt Q6UWW8); experiment: human CES3 enzyme inhibition assay (CMNA substrate); type: biochemical
T2 construct: made in house; host or cells: baculovirus-insect cells
T2 sequence (Q6UWW8 27-571): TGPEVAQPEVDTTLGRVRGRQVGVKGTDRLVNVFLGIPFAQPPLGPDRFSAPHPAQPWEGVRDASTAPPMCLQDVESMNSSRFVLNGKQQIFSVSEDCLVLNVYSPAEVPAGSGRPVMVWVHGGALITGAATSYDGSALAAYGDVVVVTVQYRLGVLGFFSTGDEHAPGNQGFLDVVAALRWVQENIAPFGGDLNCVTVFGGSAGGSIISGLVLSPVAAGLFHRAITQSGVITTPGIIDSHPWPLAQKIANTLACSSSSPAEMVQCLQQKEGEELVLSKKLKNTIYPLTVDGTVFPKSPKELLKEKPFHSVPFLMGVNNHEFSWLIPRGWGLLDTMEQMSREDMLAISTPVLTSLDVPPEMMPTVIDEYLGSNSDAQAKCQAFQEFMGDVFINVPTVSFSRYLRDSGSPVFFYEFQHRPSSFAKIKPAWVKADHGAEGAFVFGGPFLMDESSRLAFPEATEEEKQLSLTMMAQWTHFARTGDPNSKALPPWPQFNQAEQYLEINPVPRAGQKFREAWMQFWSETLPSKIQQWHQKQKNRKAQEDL
Text: (§1) Recombinant human soluble epoxide hydrolase (sEH) was produced in a baculovirus expression system ([Beetham et al. 1993]) and purified by affinity chromatography ([Wixtrom et al. 1988]). […] The CESs were partially purified as previously described ([Nishi et al. 2006]), whereas microsomal preparations were used for FAAH and PON2 ([Huang et al. 2007]). Human liver cytosol and microsome extracts were obtained from BD Biosciences (San Jose, CA). Protein concentration was quantified using the Pierce BCA (bicinchoninic acid) assay (Pierce, Rockford, IL) using bovine serum albumin (BSA) as the calibrating standard.
(§2) Although the conditions for each enzyme assay were different (for details, see Table 1), the enzymatic assays were all run in a similar format. Enzymes were used at a concentration that results in linear generation of product with increasing time and protein concentration, as well as yielding a signal that was 3–20 times greater than the background. […]
(§3) For counterscreening, fresh solutions of all positive compounds were prepared in DMSO. […] IC50 values were calculated by nonlinear regression of at least five data points using SigmaPlot, version 9.01 (Systat Software Inc., Chicago, IL). […] Similarly, half-maximal effective concentration (EC50) values for agonists of the AhR and ER bioassays were determined, and the results are presented as the mean of triplicate analysis. […]

[3] = molecular target: T3, CYP450 2C9 (Homo sapiens, UniProt P11712); experiment: biochemical
T3 sequence (P11712 whole entry): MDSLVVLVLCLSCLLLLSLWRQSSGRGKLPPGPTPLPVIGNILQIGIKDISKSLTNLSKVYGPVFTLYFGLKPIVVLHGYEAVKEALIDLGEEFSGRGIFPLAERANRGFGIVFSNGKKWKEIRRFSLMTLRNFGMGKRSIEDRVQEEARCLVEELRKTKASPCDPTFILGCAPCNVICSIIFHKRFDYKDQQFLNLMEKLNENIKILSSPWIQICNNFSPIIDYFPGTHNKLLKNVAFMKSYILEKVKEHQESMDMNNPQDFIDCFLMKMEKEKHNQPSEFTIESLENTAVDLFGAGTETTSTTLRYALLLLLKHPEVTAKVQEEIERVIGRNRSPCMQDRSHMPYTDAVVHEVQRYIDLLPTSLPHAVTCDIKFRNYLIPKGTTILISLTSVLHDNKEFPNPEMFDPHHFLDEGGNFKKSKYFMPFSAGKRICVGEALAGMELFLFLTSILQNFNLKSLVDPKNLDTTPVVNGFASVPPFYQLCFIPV

[4] = molecular target: T4, human soluble epoxide hydrolase (sEH) (Homo sapiens, UniProt P34913); experiment: human sEH enzyme inhibition assay (CMNPC substrate, fluorescence kinetic); type: biochemical; details: recombinant purified enzyme, CMNPC 5 μM, counterscreen; mean ± SD
T4 construct: made in house; host or cells: baculovirus expression system
T4 sequence (P34913 1-555): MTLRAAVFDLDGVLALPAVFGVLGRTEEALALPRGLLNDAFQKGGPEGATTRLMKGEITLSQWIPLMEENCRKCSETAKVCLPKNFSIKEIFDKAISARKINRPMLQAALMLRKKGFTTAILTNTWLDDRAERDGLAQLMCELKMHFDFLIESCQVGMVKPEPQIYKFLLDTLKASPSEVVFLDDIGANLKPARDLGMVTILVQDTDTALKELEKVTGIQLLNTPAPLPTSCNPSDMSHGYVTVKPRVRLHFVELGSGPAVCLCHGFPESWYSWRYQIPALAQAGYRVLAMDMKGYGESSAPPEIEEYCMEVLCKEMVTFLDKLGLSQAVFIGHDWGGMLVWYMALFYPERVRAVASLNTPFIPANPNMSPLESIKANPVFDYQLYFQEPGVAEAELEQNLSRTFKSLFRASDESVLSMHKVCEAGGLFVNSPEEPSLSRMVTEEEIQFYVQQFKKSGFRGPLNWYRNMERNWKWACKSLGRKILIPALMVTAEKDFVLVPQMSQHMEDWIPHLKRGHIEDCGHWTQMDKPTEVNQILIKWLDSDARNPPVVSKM
Text: as §1, §2, §3

[5] = molecular target: T3, CYP450 2C9
[6] = molecular target: T5, human carboxylesterase CES1 (Homo sapiens, UniProt P23141); experiment: biochemical
T5 construct: made in house; host or cells: baculovirus-insect cells
T5 sequence (P23141 18-567): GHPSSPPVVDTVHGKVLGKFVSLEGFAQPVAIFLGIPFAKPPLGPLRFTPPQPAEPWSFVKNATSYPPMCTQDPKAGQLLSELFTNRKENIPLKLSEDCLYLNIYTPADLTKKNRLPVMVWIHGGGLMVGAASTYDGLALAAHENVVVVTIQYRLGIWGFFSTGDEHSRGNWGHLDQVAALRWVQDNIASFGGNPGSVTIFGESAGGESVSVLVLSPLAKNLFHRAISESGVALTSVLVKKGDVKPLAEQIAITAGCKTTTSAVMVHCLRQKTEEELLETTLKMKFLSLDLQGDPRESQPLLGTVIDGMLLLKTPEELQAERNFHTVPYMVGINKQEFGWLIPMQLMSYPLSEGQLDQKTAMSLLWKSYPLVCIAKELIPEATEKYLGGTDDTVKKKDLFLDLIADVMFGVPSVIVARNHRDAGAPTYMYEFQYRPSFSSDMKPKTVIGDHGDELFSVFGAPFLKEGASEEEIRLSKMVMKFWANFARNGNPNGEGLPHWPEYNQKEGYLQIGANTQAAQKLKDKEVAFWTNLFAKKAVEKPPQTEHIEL

[7] = molecular target: T6, aryl hydrocarbon receptor (AhR) (Mus musculus, UniProt P30561); experiment: cell-based
T6 sequence (P30561 10-848): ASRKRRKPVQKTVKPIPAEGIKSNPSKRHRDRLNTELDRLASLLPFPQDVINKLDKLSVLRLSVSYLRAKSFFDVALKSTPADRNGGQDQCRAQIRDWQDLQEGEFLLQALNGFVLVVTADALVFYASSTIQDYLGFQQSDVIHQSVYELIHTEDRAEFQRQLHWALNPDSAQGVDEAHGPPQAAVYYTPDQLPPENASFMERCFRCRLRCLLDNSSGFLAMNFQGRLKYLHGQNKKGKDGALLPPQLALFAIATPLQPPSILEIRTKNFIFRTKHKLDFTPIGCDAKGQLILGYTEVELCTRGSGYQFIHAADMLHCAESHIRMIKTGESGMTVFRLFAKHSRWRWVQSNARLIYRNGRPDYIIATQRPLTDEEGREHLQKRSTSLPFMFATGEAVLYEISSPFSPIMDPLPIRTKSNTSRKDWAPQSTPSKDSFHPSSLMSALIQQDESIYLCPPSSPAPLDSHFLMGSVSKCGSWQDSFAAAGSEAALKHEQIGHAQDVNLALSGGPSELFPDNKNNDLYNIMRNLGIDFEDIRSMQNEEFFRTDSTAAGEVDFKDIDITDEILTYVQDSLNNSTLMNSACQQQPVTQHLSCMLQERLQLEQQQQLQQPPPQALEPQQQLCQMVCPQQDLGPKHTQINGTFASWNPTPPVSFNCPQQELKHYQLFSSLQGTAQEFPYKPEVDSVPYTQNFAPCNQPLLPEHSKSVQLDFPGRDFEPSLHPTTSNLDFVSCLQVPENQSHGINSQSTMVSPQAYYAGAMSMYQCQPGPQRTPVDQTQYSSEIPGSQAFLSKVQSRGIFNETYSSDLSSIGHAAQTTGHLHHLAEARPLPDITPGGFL

T1 sequence (P03372 whole entry): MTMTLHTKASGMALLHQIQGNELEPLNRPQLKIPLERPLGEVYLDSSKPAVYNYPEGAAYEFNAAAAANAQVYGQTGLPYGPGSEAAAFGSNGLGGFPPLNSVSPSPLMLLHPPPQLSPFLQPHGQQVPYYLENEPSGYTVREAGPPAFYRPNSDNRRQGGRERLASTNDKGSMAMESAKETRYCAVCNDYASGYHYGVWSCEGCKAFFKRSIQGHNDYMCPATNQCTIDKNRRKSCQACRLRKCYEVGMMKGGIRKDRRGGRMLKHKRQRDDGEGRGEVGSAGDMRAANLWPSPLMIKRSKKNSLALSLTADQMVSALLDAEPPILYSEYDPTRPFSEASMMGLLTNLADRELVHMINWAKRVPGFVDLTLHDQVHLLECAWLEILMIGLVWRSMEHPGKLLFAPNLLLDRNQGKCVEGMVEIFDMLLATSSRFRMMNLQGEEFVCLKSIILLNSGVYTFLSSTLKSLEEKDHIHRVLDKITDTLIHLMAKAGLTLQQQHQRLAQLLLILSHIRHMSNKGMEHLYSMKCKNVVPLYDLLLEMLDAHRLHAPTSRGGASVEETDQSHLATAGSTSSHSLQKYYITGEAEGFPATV

## ClC(Cl)=C(c1ccc(Cl)cc1)c1ccccc1Cl [o,p-DDE, dichlorodiphenyldichloroethylene]
[1]
  EC50: 1200 nM
[1]; relative to E2
  EC50 for ER induction, fold less potent than E2: approximately 10^5 fold

## CCOP(=S)(OCC)Oc1ccc([N+](=O)[O-])cc1 [Parathion, parathion]
[2]
  IC50: 4.9 ± 0.4 nM

## CCOP(=S)(OCC)Oc1nc(Cl)c(Cl)cc1Cl [Chlorpyrifos, chlorpyrifos]
[3]
  IC50: 3200 nM

## CC1CCCCC1NC(=O)Nc1ccccc1 (stereo not drawn) [Siduron, siduron]
[4]
  IC50: 33 ± 3 nM

## Pyrethrum
[5]
  IC50: 2300 nM

## ClC1=C(Cl)C2(Cl)C3C4CC(C5OC45)C3C1(Cl)C2(Cl)Cl (stereo not drawn) [Endrin]
[1]
  EC50: 13000 nM

## Oc1cc(Cl)ccc1Oc1ccc(Cl)cc1Cl [Triclosan, triclosan]
[6]
  IC50: 210 ± 20 nM
  Ki: 105 ± 5 nM

## O=C1C(Cl)=C(Cl)C(=O)c2ccccc21 [Dichlone, dichlone]
[7]
  EC50: > 10000 nM

## CCOP(=S)(OCC)SCSc1ccc(Cl)cc1 [Carbophenothion, carbophenothion]
[2]
  IC50: 110 ± 15 nM

## Clc1ccc(-c2nc3ccccc3s2)cc1 [CPB, 2-(4-chlorophenyl)-benzothiazole]
[7]
  EC50: 11400 nM

## O=P(Oc1ccccc1)(Oc1ccccc1)Oc1ccccc1 [TPP, triphenyl phosphate]
[6]
  IC50: 43 ± 3 nM

## C/C=C/C(=O)Oc1c(C(C)CCCCCC)cc([N+](=O)[O-])cc1[N+](=O)[O-] (stereo not drawn) [2-Methylheptyl-4,6-dinitrophenyl crotonate]
[5]
  IC50: 120 ± 1 nM

## O=C(Nc1ccc(Cl)cc1)Nc1ccc(Cl)c(Cl)c1 [TCC, trichlorocarbanilide]
[4]
  IC50: 13 ± 1 nM
